One experiment concerns KB. Nature of the experiment: Cytotoxicity against human KB cells. Format: functional, cell-based.
A further experiment relates to P388. Nature of the experiment: Cytotoxicity against mouse P388 cells. Format: functional, cell-based.

Active and inactive are the calls of the source. No cut-off for these calls is given here.

With `COc1cc2cc(-c3c(O)c(OC)cc4ccc(=O)oc34)c(=O)oc2cc1O`, the result with KB and with P388 was inactive.

The values are drawn from ChEMBL document CHEMBL1151296, “Ipomopsin, a New Biscoumarin from Ipomopsis aggregata” (J Nat Prod, 1984).
